These compounds were tested against T1, CRTH2 (KB8 cells) (Homo sapiens, UniProt Q9Y5Y4) (assay: CRTH2 antagonist test (PGD2-induced intracellular calcium ion concentration increase in KB8 cells)). Conditions: PGD2 100 nM, Fluo-4 calcium fluorescence, read-out: CRTH2 antagonist activity IC50 value.
T1 construct: host or cells: KB8 cells (human CRTH2 expression cell)
T1 sequence (Q9Y5Y4 1-395): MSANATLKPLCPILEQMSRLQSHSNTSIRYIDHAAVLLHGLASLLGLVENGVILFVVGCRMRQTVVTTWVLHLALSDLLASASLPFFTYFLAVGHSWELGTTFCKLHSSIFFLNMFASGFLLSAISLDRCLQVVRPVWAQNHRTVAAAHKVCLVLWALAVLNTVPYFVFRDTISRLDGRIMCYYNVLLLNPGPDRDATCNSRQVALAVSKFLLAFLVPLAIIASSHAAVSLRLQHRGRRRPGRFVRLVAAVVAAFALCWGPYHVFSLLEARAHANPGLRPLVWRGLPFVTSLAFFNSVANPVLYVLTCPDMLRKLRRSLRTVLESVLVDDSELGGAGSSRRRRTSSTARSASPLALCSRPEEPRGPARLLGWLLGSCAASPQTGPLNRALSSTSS
Format: cell-based
Procedure: The antagonist activity of the compound of the present invention was considered by using the intracellular calcium ion concentration increase reaction induced when the prostaglandin D2 was added to KB8 cells.
Fluo-4-AM (4-(6-acetoxymethoxy-2,7-difluoro-3-oxo-9-xanthenyl)-4′-methyl-2,2′-(ethylenedioxy)dianilide-N,N,N′,N′-tetraacetic acid tetrakis(acetoxymethyl) ester (SIGMA, final concentration: 1 μM) was added to KB8 cells, and the cells were incubated at 37° C. for 30 min, washed with phosphate buffer (Invitrogen), and then suspended in Hank's balanced salt solution (Invitrogen)) containing a reaction buffer solution (10 mM HEPES (Invitrogen), and 1 mM calcium chloride (SIGMA). The suspension was dispensed in a 96 well plate (Nunc) so that 2×10^5 cells/well were placed, and the compound of the present invention and PGD2 (final concentration: 100 nM) were added. The fluorescence intensity thereof was measured over time by using FDSS6000 (Hamamatsu Photonics), and thus the maximum fluorescence intensity value “d” was obtained. The same procedure was carried out in the absence of the compound, and the maximum fluorescence intensity value “e” was obtained; and the same procedure was carried out in the absence of the compound and […], and the maximum fluorescence intensity value “f” was obtained.
The calcium ion concentration increase inhibition rate of a compound was calculated by the following calculation formula: Inhibitory rate(%)=[1−(d−f)/(e−f)]×100
That is to say, by using calcium ion concentration increase inhibitory rates of compounds to be tested having various concentrations, the IC50 value was calculated according to a dose-dependent inhibition curve analyzed by using XLfit (IDBS) as a data analysis software, and the value was defined as an indicator of the antagonist activity. In Tables, A denotes an inhibitory activity showing the IC50 value of less than 50 nM; B denotes an inhibitory activity showing the IC50 value of 50 nM or greater and less than 500 nM; C denotes an inhibitory activity showing the IC50 value of 500 nM or greater and less than 1000 nM; and D denotes an inhibitory activity showing the IC50 value of 1000 nM or greater.
For `O=C(O)Cc1cnc(Cc2ccc(C(=O)NCCC34CC5CC(CC(C5)C3)C4)cc2)c2ccccc12` [Example 240], the IC50 was 6.6 nM.

Same assay, conditions: PGD2 final concentration 100 nM, Fluo-4-AM fluorescence, read-out: antagonist activity (IC50 value, inhibition of calcium ion concentration increase)
For `O=C(O)Cc1cnc(Cc2ccc(C(=O)NCCc3csc4ccccc34)cc2)c2ccccc12` [Example 230], the IC50 was less than 50 nM.
Compound `COc1ccc2c(C(=O)c3ccc(C(=O)NCCc4ccc(Cl)cc4)cc3)ncc(CC(=O)O)c2c1` [Example 260, {1-[(4-{[2-(4-chlorophenyl)ethyl]carbamoyl}phenyl)carbonyl]-6-methoxyisoquinolin-4-yl}acetic acid] has an IC50 of 50 to 500 nM.
`O=C(O)Cc1cnc(Cc2ccc(C(=O)NCCc3ccc4ccccc4n3)cc2)c2ccccc12` [Example 202] was tested, and the IC50 was 50 to 500 nM.
With `O=C(O)Cc1cnc(C(=O)c2ccc(NC(=O)c3cn4ccccc4n3)cc2)c2ccccc12` [Example 121] the IC50 was 50 to 500 nM.
`O=C(O)Cc1cnc(C(=O)c2ccc(NC(=O)c3cccc4cccnc34)cc2)c2ccccc12` [Example 104] showed an IC50 of no less than 1000 nM.
With `O=C(O)Cc1cnc(Cc2ccc(C(=O)NCCc3cc(F)cc(C(F)(F)F)c3)cc2)c2ccccc12` [Example 215] the IC50 was 50 to 500 nM.
`O=C(O)Cc1cnc(Cc2ccc(C(=O)NCCc3ccc(C(=O)O)cc3)cc2)c2ccccc12` [Example 173] gave an IC50 of no less than 1000 nM.
With `Cc1ccc2sc(C(=O)Nc3ccc(C(=O)c4ncc(CC(=O)O)c5ccccc45)cc3)cc2c1` [Example 102] the IC50 was less than 50 nM.
For `COc1cccc(C(=O)Nc2ccc(C(=O)c3ncc(CC(=O)O)c4ccccc34)cc2)c1` [Example 72], the IC50 was less than 50 nM.
`Cc1cc(C(=O)Nc2ccc(C(=O)c3ncc(CC(=O)O)c4ccccc34)cc2)ccc1Cl` [Example 107] showed an IC50 of less than 50 nM.
Work on `O=C(O)Cc1cnc(C(=O)c2ccc(NC(=O)c3c(F)cccc3Cl)cc2)c2ccccc12` [Example 36] yielded an IC50 of no less than 1000 nM.
`O=C(O)Cc1cnc(C(=O)c2ccc(NC(=O)c3ccc(Cl)cc3Cl)cc2)c2ccccc12` [Example 41] showed an IC50 of 50 to 500 nM.
In the case of `Cc1cc(CCNC(=O)c2ccc(Cc3ncc(CC(=O)O)c4ccccc34)cc2)ccc1Cl` [Example 245], the IC50 is reported as less than 50 nM.
Compound `O=C(O)Cc1cnc(Oc2ccc(C(=O)NCCc3ccc(Cl)cc3)cc2)c2ccccc12` [Example 261, [1-(4-{[2-(4-chlorophenyl)ethyl]carbamoyl}phenoxy)isoquinolin-4-yl]acetic acid] has an IC50 of no less than 1000 nM.
For `O=C(O)Cc1cnc(Cc2ccc(C(=O)NCCC3=CCCCC3)cc2)c2ccccc12` [Example 188], the IC50 was 50 to 500 nM.
For `O=C(O)Cc1cnc(Cc2ccc(C(=O)Nc3ccc(Cl)cc3)cc2)c2ccccc12` [Example 159], the IC50 was less than 50 nM.
`O=C(O)Cc1cnc(Cc2ccc(C(=O)NCCc3ccccc3F)cc2)c2ccccc12` [Example 181] gave an IC50 of 50 to 500 nM.
Compound `COc1ccc2[nH]c(CCNC(=O)c3ccc(Cc4ncc(CC(=O)O)c5ccccc45)cc3)cc2c1` [Example 236] has an IC50 of less than 50 nM.
For `O=C(O)Cc1cnc(C(=O)c2ccc(NC(=O)c3ccc(C(=O)c4ccccc4)cc3)cc2)c2ccccc12` [Example 91], the IC50 was less than 50 nM.
Work on `O=C(O)Cc1cnc(C(=O)c2ccc(NC(=O)c3ccc4occc4c3)cc2)c2ccccc12` [Example 116] yielded an IC50 of less than 50 nM.
`O=C(O)Cc1cnc(C(=O)c2ccc(NC(=O)c3cscn3)cc2)c2ccccc12` [Example 58] was tested, and the IC50 was no less than 1000 nM.
`COc1ccc(CCNC(=O)c2ccc(Cc3ncc(CC(=O)O)c4ccccc34)cc2)cc1Cl` [Example 157] showed an IC50 of less than 50 nM.
`O=C(O)Cc1cnc(Cc2ccc(C(=O)NCCc3cc(F)cc(Cl)c3)cc2)c2ccccc12` [Example 216] showed an IC50 of 50 to 500 nM.
With `O=C(O)Cc1cnc(Cc2ccc(C(=O)NCCC3CCOCC3)cc2)c2ccccc12` [Example 214] the IC50 was no less than 1000 nM.
`COc1ccccc1C(=O)Nc1ccc(C(=O)c2ncc(CC(=O)O)c3ccccc23)cc1` [Example 40] showed an IC50 of no less than 1000 nM.
Work on `CCCCNC(=O)c1ccc(Cc2ncc(CC(=O)O)c3ccccc23)cc1` [Example 186] yielded an IC50 of 500 to 1000 nM.
Compound `COc1cc(CCNC(=O)c2ccc(Cc3ncc(CC(=O)O)c4ccccc34)cc2)ccc1C` [Example 211] has an IC50 of 50 to 500 nM.
With `CC(C)Oc1ccc(CCNC(=O)c2ccc(Cc3ncc(CC(=O)O)c4ccccc34)cc2)cc1` [Example 225] the IC50 was less than 50 nM.
Compound `COc1ccccc1CCNC(=O)c1ccc(Cc2ncc(CC(=O)O)c3ccccc23)cc1` [Example 184] has an IC50 of 50 to 500 nM.
`Cc1cccc(C(=O)Nc2ccc(C(=O)c3ncc(CC(=O)O)c4ccccc34)cc2)c1` [Example 73] was tested, and the IC50 was less than 50 nM.
In the case of `CCCOc1ccc(C(=O)Nc2ccc(C(=O)c3ncc(CC(=O)O)c4ccccc34)cc2)cc1` [Example 110], the IC50 is reported as less than 50 nM.
For `O=C(O)Cc1cnc(Cc2ccc(C(=O)NCCc3cc4cc(F)ccc4[nH]3)cc2)c2ccccc12` [Example 235], the IC50 was less than 50 nM.
For `O=C(O)Cc1cnc(C(=O)c2ccc(NC(=O)c3cc(Cl)cc(Cl)c3Cl)cc2)c2ccccc12` [Example 45], the IC50 was 50 to 500 nM.
Compound `O=C(O)Cc1cnc(C(=O)c2ccc(NC(=O)c3cccnn3)cc2)c2ccccc12` [Example 98] has an IC50 of no less than 1000 nM.
`O=C(O)Cc1cnc(Cc2ccc(C(=O)NCCc3ccc4c(c3)CCCC4)cc2)c2ccccc12` [Example 218] gave an IC50 of less than 50 nM.
`O=C(O)Cc1cnc(Cc2ccc(C(=O)NCCc3cn4ccccc4n3)cc2)c2ccccc12` [Example 227] was tested, and the IC50 was no less than 1000 nM.
In the case of `O=C(O)Cc1cnc(Cc2ccc(C(=O)NCC3(c4ccc(Cl)cc4)CC3)cc2)c2ccccc12` [Example 246], the IC50 is reported as 50 to 500 nM.
For `O=C(O)Cc1cnc(Cc2ccc(C(=O)NCCc3ccccc3Br)cc2)c2ccccc12` [Example 183], the IC50 was less than 50 nM.
`O=C(O)Cc1cnc(C(=O)c2ccc(NC(=O)c3ccc4ncccc4c3)cc2)c2ccccc12` [Example 67] was tested, and the IC50 was 50 to 500 nM.
`O=C(O)Cc1cnc(C(=O)c2ccc(NC(=O)c3cccc(Cl)c3Cl)cc2)c2ccccc12` [Example 30] showed an IC50 of 500 to 1000 nM.
Compound `O=C(O)Cc1cnc(C(=O)c2ccc(NC(=O)c3ccc(O)cc3)cc2)c2ccccc12` [Example 89] has an IC50 of less than 50 nM.
In the case of `Cc1cc(C)cc(C(=O)Nc2ccc(C(=O)c3ncc(CC(=O)O)c4ccccc34)cc2)c1` [Example 103], the IC50 is reported as less than 50 nM.
Work on `O=C(O)Cc1cnc(Cc2ccc(C(=O)NCCc3cccc(F)c3)cc2)c2ccccc12` [Example 182] yielded an IC50 of 50 to 500 nM.
For `CCCOc1ccc(CCNC(=O)c2ccc(Cc3ncc(CC(=O)O)c4ccccc34)cc2)cc1` [Example 241], the IC50 was less than 50 nM.
For `O=C(NCCc1ccc(Cl)cc1)c1ccc(Cc2ncc(Cc3nnn[nH]3)c3ccccc23)cc1` [Example 257, N-[2-(4-chlorophenyl)ethyl]-4-{[4-(1H-tetrazol-5-ylmethyl)isoquinolin-1-yl]methyl}benzamide], the IC50 was no less than 1000 nM.
With `O=C(O)Cc1cnc(Cc2ccc(C(=O)NCCCc3ccc(Cl)cc3)cc2)c2ccccc12` [Example 164] the IC50 was less than 50 nM.
For `O=C(O)Cc1cnc(Cc2ccc(OCCc3ccc(Cl)cc3)cc2)c2ccccc12` [Example 149, (1-{4-[2-(4-chlorophenyl)ethoxy]benzyl}isoquinolin-4-yl)acetic acid], the IC50 was 500 to 1000 nM.
In the case of `O=C(O)Cc1cnc(C(=O)c2ccc(NC(=O)COc3ccc(Cl)cc3)cc2)c2ccccc12` [Example 87], the IC50 is reported as 50 to 500 nM.
In the case of `COc1ccc(C(=O)Nc2ccc(C(=O)c3ncc(CC(=O)O)c4ccccc34)cc2)cc1Cl` [Example 108], the IC50 is reported as less than 50 nM.
In the case of `O=C(O)Cc1cnc(C(=O)c2ccc(COCCc3ccc(Cl)cc3)cc2)c2ccccc12` [Example 146, {1-[(4-{[2-(4-chlorophenyl)ethoxy]methyl}phenyl)carbonyl]isoquinolin-4-yl}acetic acid], the IC50 is reported as 50 to 500 nM.
`O=C(O)Cc1cnc(Cc2ccc(C(=O)NCCc3ccc(-c4ccccc4)cc3)cc2)c2ccccc12` [Example 194] was tested, and the IC50 was less than 50 nM.
`O=C(O)Cc1cnc(C(=O)c2ccc(NC(=O)c3ccc(F)cc3)cc2)c2ccccc12` [Example 28] gave an IC50 of less than 50 nM.
In the case of `O=C(O)Cc1cnc(Cc2ccc(C(=O)NCCc3cccc(Cl)c3F)cc2)c2ccccc12` [Example 244], the IC50 is reported as less than 50 nM.
`O=C(O)Cc1cnc(C(=O)c2ccc(NC(=O)c3cc4ccccc4s3)cc2)c2ccccc12` [Example 119] gave an IC50 of less than 50 nM.
Compound `Cc1ccc(C)c(C(=O)Nc2ccc(C(=O)c3ncc(CC(=O)O)c4ccccc34)cc2)c1` [Example 44] has an IC50 of 50 to 500 nM.
Compound `O=C(O)Cc1cnc(C(=O)c2ccc(NC(=O)c3ccc4nccnc4c3)cc2)c2ccccc12` [Example 117] has an IC50 of 500 to 1000 nM.
Work on `O=C(O)Cc1cnc(Cc2ccc(C(=O)NCCC34CC5CC(CC(C5)C3)C4)cc2)c2ccccc12` [Example 240] yielded an IC50 of less than 50 nM.
